# Measured values from patent US20190151304A1, “METHODS AND PHARMACEUTICAL COMPOSITIONS FOR THE TREATMENT OF AUTOIMMUNE INFLAMMATORY” (INSERM (INSTITUT NATIONAL DE LA SANTÉ ET DE LA RECHERCJAE …, priority 2016, published 2019).
# No end group written: not given here.
# How the values were obtained:
# EAE mice = assay: Chronic experimental autoimmune encephalomyelitis (EAE) induced with MOG35-55; format: in vivo, C57BL/6 mice; details: for Histopathological EAE score (spinal cord): 30 days post-immunization; for Regulatory T cell (Treg) proportion in draining lymph nodes: day 30 post-immunization, flow cytometry, versus PBS controls; for Clinical features of EAE (clinical score 0-5): orexin A 100 or 300 μg per mouse for 5 days, IP or retro-orbital, before onset or at moderate EAE score
# Experimental: EAE was induced with 100 μg of MOG35-55 (Myelin Oligodendrocyte Glycoprotein 35-55) as previously described (Proc Natl Acad Sci USA. 106(6):2012-7, 2009) to 9 week old female C57BL/6 wild-type (WT) mice (n=10/group). Panels show clinical signs of EAE scored daily in a blinded fashion for over 30 days on a scale of 0-5 as follows: 0, no detectable clinical signs, 1, waddling gait with limp tail, 2, ataxia with full paralysis of one limb, 3, full paralysis of two limbs, 4, full paralysis of two limbs with important weight loss (>20% of initial weight) and 5, moribund or dead. Then, mice were given:
# Panel A, intraperitoneally (IP) either PBS (group PBS IP), 100 μg of orexin A per mouse for 5 days on day 3 (=before the onset, group BOxA100 IP) or at a moderate EAE score (=1,5-2 for group OxA100 IP).
# Panel B, intraperitoneally either PBS (group PBS), 100 μg (group OxA100 IP) or 300 μg (group OxA300 IP) of orexin A per mouse for 5 days at a moderate EAE score (=1,5-2).
# Panel C, either PBS (group PBS), 300 μg of orexin A per mouse intraperitoneally (group OxA300 IP) or retro-orbitally (RO) (group OxA300 RO) for 5 days at a moderate EAE score (=1,5-2).
# The EAE score is shown as mean+/−SEM. *P<0.05 (nonparametric t-test, compared to PBS group).
# FIG. 5. […] 30 days post-immunization, mice (from the PBS, OxA300 RO, and OxA300 IP groups of FIG. 2, panel C) were sacrificed and spinal cords were harvested, fixed overnight in 4% paraformaldehyde and stored in 70% ethanol. Spinal cords were then embedded in paraffin and cut in […] section. After haematoxylin/eosin (to distinguish cell infiltration) and luxol fast blue (to label myelin) staining, photography was performed at ×1,25 and ×10 magnifications for the spinal cord sections of PBS, OxA300 RO and OxA300 IP mice. […] Histopathology grading was as follows: 0—normal appearance, 1—some infiltrated cells and low demyelination, 2—2 or 3 infiltrated areas and low demyelination, 3—numerous infiltrated areas and strong demyelination, 4—important cell infiltration throughout the tissue with strong demyelination. *P<0.05 (nonparametric t-test, compared to PBS group).
# FIG. 6. […] It was determined 30 days after EAE induction of PBS, OxA300 RO, and OxA300 IP mice (from FIG. 2, panel C) by real time RT-qPCR as previously described (Proc Natl Acad Sci USA. 106(6):2012-7, 2009). *P<0.05 (nonparametric t-test, compared to PBS group).
# FIG. 7. […] On day 30 post-immunization, draining lymph nodes were harvested from the naïve, PBS, OxA300 RO, and OxA300 IP groups (FIG. 2, panel C). Assessment by flow cytometry was performed by using the mouse regulatory T cell staining kit: lymph node Tregs were defined as […] and proliferative Tregs as CD4^+CD25^+Foxp3^+Ki67^+ cells.
# Histograms represent the mean of the percentage (left) and the total number (right) of Tregs and proliferative Tregs (Ki67^+Tregs) for each group. Bars represent the mean+/−SEM of 5 individual mice. *P<0.05 (non parametric t-test, compared to PBS group).
# Therefore, orexin A presents potent intrinsic anti-inflammatory properties, capable of modulating the Th/Treg homeostasis during an auto-immune response as aggressive as in a chronic EAE model.
# OX1R = biological target: T1, OX1R (Homo sapiens, UniProt O43613, A280G); assay: Ca2+ mobilization assay in HEK-OX1R cells (FluoForte); format: cell-based; details: 1 μM
# T1 construct: HEK cells expressing recombinant native OX1R (HEK-OX1R); expressed in transfected cells; host or cells: HEK cells (HEK-OX1R)
# T1 sequence (O43613 1-425 A280G): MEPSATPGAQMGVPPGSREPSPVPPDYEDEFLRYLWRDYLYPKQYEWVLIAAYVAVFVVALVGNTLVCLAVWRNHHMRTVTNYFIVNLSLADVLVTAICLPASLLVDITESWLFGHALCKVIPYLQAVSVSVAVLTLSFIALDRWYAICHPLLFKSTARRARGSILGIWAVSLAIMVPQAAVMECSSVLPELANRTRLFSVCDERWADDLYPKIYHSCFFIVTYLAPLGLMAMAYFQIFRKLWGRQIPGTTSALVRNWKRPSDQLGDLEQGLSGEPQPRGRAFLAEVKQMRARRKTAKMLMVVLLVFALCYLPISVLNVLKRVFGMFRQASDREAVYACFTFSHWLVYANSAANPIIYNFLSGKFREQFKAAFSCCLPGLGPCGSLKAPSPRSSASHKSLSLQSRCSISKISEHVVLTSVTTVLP
# [1] = tested on: colon adenocarcinoma HT-29 cells; assay: Apoptosis assay (annexin V-PE binding, Guava nexin kit) in HT-29 cells; format: cell-based; details: 48 h; orexin-A 1 μM, SB408124 various concentrations
# Experimental: FIG. 13: Effect of orexin-A and SB408124 antagonist on apoptosis in OX1R expressing colon adenocarcinoma cells, HT-29. HT-29 cells were challenged with 1 μM orexin-A or various concentration of SB408124 for 48 h. Apoptosis was measured by determination of annexin V-PE binding, and results are expressed as the percentage of apoptotic cells. Results are means±SE of three experiments. ***P<0.001.
# Cells growth determination and apoptosis assay: HEK-OX1R cells or colon adenocarcinoma HT-29 cells were seeded, grown and maintained at 37° C. in a humidified 5% CO2/air incubator. After 24 hr culture, cells were treated with or without Orexin-A peptide or SB408124 antagonist, previously dissolved in DMSO, to be tested at the concentration indicated in the figure legends. After 48 hr of treatment, adherent cells were harvested by Trip1E (Life Technologies, Saint Aubin, France) and manually counted. Apoptosis was determined using the Guava PCA system and the Guava nexin kit.
# [2] = 30 days after EAE induction, RT-qPCR, OxA 300 μg RO or IP
substance,measurement,setting,value
"OxA: neuropeptide, endogenous ligand of OX1R and OX2R, with two disulphide bridges (QPLPDCCRQKTCSCRLYELLHGAGNHAAGILTL; disulfide (positions not given here); ends not checked; also: two disulphide bridges, pairing not given here; UniProt O43612 34-66, looked up)",Th1-specific (IFNγ) cytokine gene expression in the brain,EAE mice; [2],efficiently suppresses
same,Th17-specific (IL-17) cytokine gene expression in the brain,EAE mice; [2],efficiently suppresses
same,Histopathological EAE score (spinal cord),"EAE mice; OxA 300 μg RO or IP, listed as Orexin A",significantly decreases
same,Histopathological EAE score (spinal cord),"EAE mice; OxA 300 μg RO or IP, listed as orexin A",drastic reduction
same,Regulatory T cell (Treg) proportion in draining lymph nodes,EAE mice; listed as Orexin A,increased
same,Regulatory T cell (Treg) proportion in draining lymph nodes,EAE mice; listed as orexin A,increase
same,Clinical features of EAE (clinical score 0-5),EAE mice; listed as Orexin A,dramatically alleviate
same,Clinical features of EAE (clinical score 0-5),EAE mice; listed as orexin A,significantly ameliorated
same,Th1/Th17 pro-inflammatory responses in the CNS tissues,EAE mice; orexin A treated-mice versus PBS controls,drastic reduction
same,Ca2+ mobilization induced in HEK-OX1R cells,OX1R,large and transient
same,Apoptosis in HT-29 cells,[1],induced an apoptotic effect
